Laboratory results: patent US20040047922A1, “Preparation with vascular protective and anti-oxidative effect and use thereof” (priority 2000, published 2004)

Key:
[1] = system: LDL; test: Cu(II)-induced formation of conjugated dienes in LDL isolated from plasma pre-incubated with the test substance (lag phase); format: biochemical; details: FIG. 2
Experimental: In-vitro LDL oxidation is a common model for testing various substances for their antioxidant properties because they accumulate in the LDL in vitro due to pre-incubation of the plasma with (primarily lipophilic) test substances (McLean und Hagaman, 1989, Biochemistry 28(1); pp. 321-327, Esterbauer et al, 1991b, Am. J. Clin. Nutr. 53, pp. 315S-321S). After accumulation, the influence of these substances on the oxidability of LDL can be studied.
Continuous measurement of the formation of conjugated dienes in LDL is an accepted method of comparing oxidizability of the lipid portion of various LDL samples (Esterbauer et al. 1989, Free Rad. Res. Comms. 6(1), pp. 67-75; Parthasarathy et al. 1998, Free Rad. Res. 28, pp. 583-591). […] The study was to find out whether accumulation of lemon oil or γ-terpinene in LDL can protect the LDL from Cu(II)-induced oxidation.
In another test, blood plasma was incubated with 0.5, 0.25, 0.1 and 0.01% γ-terpinene and the LDL isolated from it was tested for resistance against cooper-induced oxidation.

[2] = system: tryptophane residues in apo B-100 of LDL; test: Cu(II)-induced loss of tryptophane fluorescence in LDL; format: biochemical; details: FIG. 5
Source text: Oxidation of HDL or LDL with Cu(II) goes along with a reduction of the tryptophane residues (Reyftmann et al., 1990, Biochim. Biophys. Acta 1042, pp. 159-167), which can be observed by measuring fluorescence. After adding Cu(II) to an LDL solution, fluorescence initially drops within a few seconds due to quenching effects caused by copper. […] The time before the slower phase changes into the faster phase can be defined as the lag phase, just like with diene conjugation. (Giessauf et.al., 1995, Biochim. Biophys. Acta 1256, pp. 221-232). The faster decline in fluorescence starts about at the same time as the propagation phase of diene conjugation and is most likely based on a reaction of lipid peroxidation products with tryptophane residues. We used this test system, too, to find out whether the accumulation of lemon oil or γ-terpinene in LDL influences the Cu(II)-induced loss of tryptophane fluorescence.

Q: Which “lag phase of conjugated diene formation” value ([1]; 0.01% γ-terpinene in the plasma) does the source give for `CC1=CCC(C(C)C)=CC1` [γ-terpinene] here?
A: The value was “clearly extended”.

Q: What about the “extension of the lag phase of conjugated diene formation” value ([1]; 0.1% γ-terpinene in the plasma) of the same molecule?
A: The value was “about 250 minutes”.

Q: And the “time without reaching the propagation phase” value ([1]; higher concentrations in the plasma (0.25 and 0.5% γ-terpinene))?
A: The value was over 500 min.

Q: What about the “lag phase of conjugated diene formation” value ([1]; plasma incubated with 0.5, 0.25, 0.1 and 0.01% γ-terpinene, copper-induced oxidation) of the same molecule?
A: Its value is “expands depending on concentration”.

Q: What about the “oxidation of tryptophane residues in LDL” value ([2]; 0.5% of γ-terpinene in the plasma) of the same molecule?
A: Its value is “almost completely prevents”.

Q: What about the “early protein oxidation (loss of tryptophane fluorescence)” value ([2]; LDL enriched with γ-terpinene) of the same molecule?
A: The value was “slows down”.
